# Laboratory results taken from ChEMBL document CHEMBL3507680, “University of Dundee, Gates Library screen for HepG2 cell viability”.
# Assay: Human HepG2 cell viability assay in 384 well format
# Type: toxicity, cell-based
# Set-up: dose 125 nL, time 70.5 hour; cytotoxicity at 70.5 h: concentration not given beside the values
# Settings: HepG2 cells, read-out: Inhibition
row,Structure (SMILES),cytotoxicity at 70.5 h
1,COc1nccc(N2CC[C@@H](N3CCC(O)CC3)[C@H](O)C2)c1C#N,5.37%
2,Cc1cc(NCC(C)C)ccc1C(=O)N(C)C,13.4%
3,CC(C)c1ccc(CN2CCC(CNS(=O)(=O)C3CC3)C2)cc1 (configuration not stated),-3.87%
4,Cc1cc(CNC(=O)Nc2ccc(C(=O)NC3CC3)cc2)no1,-14.3%
5,COc1cc(CN(C)C(=O)NCc2cccc3c2OCO3)ccc1SC,-6.35%
6,Cc1cc(NC(=O)NCC(C(C)C)N2CCOCC2)n(C)n1 (configuration not stated),-6.55%
7,CC(C)(C)c1nc(CN2CCC(N3CCCCC3)CC2)no1,-2.12%
8,Cn1nccc1-c1cnc2n1CCC21CCN(C(=O)C2(C)CC2)CC1,-11%
9,CCS(=O)(=O)c1ccc(CNc2c(Cl)cccc2C#N)cc1,-1.09%
10,O=C(c1csc(-c2nnc[nH]2)n1)N1CCCCC1Cn1cccn1 (configuration not stated),1.45%
11,O=C(Cc1ccncc1)N1C[C@@H]2CC[C@H](C1)N(Cc1ccccc1)C2=O,-3.45%
12,Cc1nn(C)c(C)c1OCC(=O)NCC(O)c1ccco1 (configuration not stated),16%
13,Cc1noc(C)c1CNC(=O)N1CCC(NS(C)(=O)=O)CC1,-3.15%
14,Cc1c(C(=O)NCCC(=O)N2CCOCC2)oc2c(C)cccc12,-12.9%
15,CC1CCN(C(=O)C(C)n2cc(Br)cn2)CC1 (configuration not stated),-3.34%
16,CCSCc1nc(O)c2nnn(C3CCN(Cc4ccco4)CC3)c2n1,9.06%
17,CC(C)Cc1ccc(S(=O)(=O)NCCCN2CCNC(=O)C2)cc1,-3.66%
18,NS(=O)(=O)CCN1CCOC(c2ccc(Cl)cc2)C1 (configuration not stated),2.97%
19,Cc1cccc(N2CCC3(CCN(C(=O)c4cccnc4)CC3)C2)n1,14%
20,CNC(=O)N(Cc1c(F)cccc1F)C1CCCC1,-3.72%
21,CCOCC1CN(C(=O)c2cscn2)Cc2cnn(CC3CC3)c21 (configuration not stated),8.12%
22,Cc1csc(Nc2cc(C3CN(C(C)C)C3)nc(C)n2)n1,-3.73%
23,CN(C)c1nc2c(c(N3CCC(O)CC3)n1)CN(CC(C)(C)C)CC2,-13.5%

row,Structure (SMILES),cytotoxicity at 70.5 h
1,CC(CNC(=O)N1CCS(=O)(=O)CC1)Cc1cccs1 (configuration not stated),-1.72%
2,COc1cccc(CN(C)Cc2cccc(C#N)c2)c1OC,-3.83%
3,Cc1ccc2nccc(C(=O)N3CCOC(CCN(C)C)C3)c2c1 (configuration not stated),15.6%
4,COc1ccc2c(c1)CCCN2C(=O)NCCc1cnn(C)c1,-11.2%
5,O=C(Cc1n[nH]c(-c2cncc(Br)c2)n1)NCc1ccccn1,-8.81%
6,Cc1ncc(CNC(CCO)C2CCCCC2)s1 (configuration not stated),1.31%
7,CC(CO)(NC(=O)Nc1nncs1)C1CCCCC1 (configuration not stated),2.4%
8,CC(C)(C)NC(=O)C1(Cc2ccccc2-c2ccncc2)CCOCC1,27.7%
9,Cc1nc(C(=O)N(CC(=O)N(C)C)CC(F)(F)F)c2ccccn12,-4.52%
10,N#Cc1cccc(S(=O)(=O)N2CCCCC2CCN2CCCC2)c1 (configuration not stated),-3.74%
11,O=C(c1cnn[nH]1)N(CCCO)Cc1cccnc1,1.99%
12,COCC(=O)NCc1ccc(-c2ncncc2C(=O)N(C)C)cc1,-2.25%
13,CCNc1cc2c(nn1)CCN(C(=O)c1cc3cccc(C)c3o1)C2,-2.31%
14,O=C(C1=CCCC1)N1C[C@H](OCc2cccnc2)[C@H]2OCCC[C@H]21,-9.34%
15,Cc1nnc(C(C)N(C)Cc2c(C)nn(-c3ccccc3C)c2C)o1 (configuration not stated),2.96%
16,Cn1cc(C(=O)N2CC[C@@H]3[C@@H]2CCN3c2ncc(F)cn2)cn1,-5.7%
17,N[C@H]1CN(C(=O)Cc2ccc(Cl)c(Cl)c2)C[C@@H]1C1CC1,13.6%
18,Cc1cc(C)n2cc(CN3CCCC3Cn3nc(C)nc3C)nc2n1 (configuration not stated),-6.16%
19,CCNS(=O)(=O)c1ccc(C)c(C(=O)N(C)Cc2ccco2)c1,-5.04%
20,Cc1n[nH]c(C2CN(CC(=O)NCc3cccs3)CCO2)n1 (configuration not stated),-86.1%
21,O=C(c1ccoc1)N1CCOCC2(CCN(Cc3cccs3)C2)C1 (configuration not stated),-12.4%
22,NC(=O)C1CCCN(C(=O)c2ccn(-c3ccc(F)cc3)n2)C1 (configuration not stated),-5.61%
23,Cc1noc(C)c1CNC(=O)N1CCC(CN2CCC(C)CC2)CC1,-2.8%

row,Structure (SMILES),cytotoxicity at 70.5 h
1,Cc1nc(C)c(C(=O)N2CCCC2c2nc(O)cc(C(C)C)n2)s1 (configuration not stated),-6.05%
2,Cc1cc(C)c(CNC(=O)N(C)Cc2ccc3c(c2)OCO3)c(=O)[nH]1,-3.96%
3,c1ccc(N2CCC(NCc3cccc4cn[nH]c34)C2)cc1 (configuration not stated),7.7%
4,CCS(=O)(=O)N1CCN(CC2CC2)c2ncccc2C1,-2.09%
5,Cc1nn(C)c(C)c1C1COCCN1C(=O)CSC(C)(C)C (configuration not stated),-18.7%
6,CN(C)CC1(O)CCN(C(=O)Cc2ccc(Cl)c(Cl)c2)C1 (configuration not stated),10.5%
7,Cc1nc(-c2ccncc2)ncc1C(C)NC(=O)C1=NN(C)C(=O)CC1 (configuration not stated),-8.41%
8,CC(NC(=O)CNC(=O)OC(C)(C)C)c1ccc(Cl)s1 (configuration not stated),10.9%
9,Cc1ccc(C)c(NC(=O)Cn2cc(I)cn2)c1,-13.2%
10,CN(Cc1ccccc1F)C(=O)COC(=O)c1cc(Cl)c[nH]1,10.9%
11,CCn1nc2c(cc1=O)CN(Cc1nc(-c3cccs3)no1)CC2,-12.8%
12,Cc1ccc(Cn2cc(Br)c(NS(C)(=O)=O)n2)cc1,-5.3%
13,O=C1OCCN1CCSc1nnnn1CC(F)(F)F,-5.39%
14,CN(CCc1nccs1)C(=O)CC1(O)CCCCC1,-5.26%
15,CNc1cccc(C2CCCN(C(=O)c3coc(C)n3)C2)n1 (configuration not stated),-0.702%
16,COc1ccnc(N2CCN(Cc3nc(-c4ccoc4)no3)CC2)c1,-0.129%
17,CCOCCC(=O)N1CCCC(CO)(CC2CC2)C1 (configuration not stated),-11%
18,N#Cc1cccc(CN2C[C@@H](F)[C@@H](OCc3nc4cnccc4[nH]3)C2)c1,11.4%
19,Cc1cnn(C2CCCN(C(=O)c3cn4cccnc4n3)C2)c1 (configuration not stated),-3.94%
20,O=C(C1CC1)N1CC[C@H](c2nnc(Cc3c[nH]c4ccccc34)o2)C1,-1.09%
21,CNC(=O)c1ccc(C(=O)N2CCCC(n3ccnc3C)C2)cn1 (configuration not stated),-3.51%
22,Cc1cc2nc(C(C)C)cc(N3CCN(S(N)(=O)=O)CC3)n2n1,-3.4%
23,CN(Cc1ccncn1)C(=O)c1cccc(CCC(C)(C)O)c1,-2.23%

row,Structure (SMILES),cytotoxicity at 70.5 h
1,Cc1cccc(-c2noc([C@@H]3C[C@@H](O)CN3Cc3ccc(CO)o3)n2)c1,0.167%
2,CCCc1cc(C(=O)N[C@@H]2CCC[C@@H](N3CCCC3)[C@@H]2O)no1,-4%
3,CCc1ocnc1C(=O)N1CCOC(CCCC(C)C)C1 (configuration not stated),-12.3%
4,CCc1nnc2n1CCN(C(=O)c1ccc3c(c1)[nH]c(=O)n3C)C2,-2.36%
5,CN(C)C(=O)C1(c2cnccn2)CCCN1C(=O)Cc1ccccc1 (configuration not stated),-5.41%
6,Cn1ccnc1CCNS(=O)(=O)c1ccc(Br)cc1,9.92%
7,CC(C)c1ccc(S(=O)(=O)NC2CCN(CC(F)(F)F)C2)cc1 (configuration not stated),16.7%
8,O=C(c1n[nH]c2c1CN(C1CCOCC1)CC2)N1CCCC1,-6.32%
9,Cc1nc(N(C)C)nc(C)c1NS(=O)(=O)c1ccccc1Cl,-8.77%
10,COc1c(C)cnc(CNC(=O)CCc2nc3ccccc3[nH]2)c1C,-3.14%
11,Cc1nn(C)c(C)c1NC(=O)CNC(c1ccccc1)C1CCCC1 (configuration not stated),-9.64%
12,Cn1cc(C(=O)N[C@@H]2CN(CC3CCOCC3)[C@@H]3CCCO[C@@H]32)cn1,-7.22%
13,Cc1nnc(Nc2cccc(C3CCN(Cc4ncc[nH]4)CC3)n2)s1,18.8%
14,CC(O)CN1CCN(CCOCC(F)(F)F)CC1 (configuration not stated),-7.92%
15,Cc1cccc2[nH]c(C3CCCN(Cc4ccc(CO)o4)C3)nc12 (configuration not stated),4.96%
16,Cc1nc2c(c(NCC(=O)NC(C)C)n1)Cc1ccccc1OC2,-2.23%
17,CCn1nc2c(cc1=O)CN(CC1CCCCO1)CC2 (configuration not stated),11.3%
18,O=C(NC1CC1)C1CCN(c2nc3nc[nH]c(=O)c3s2)CC1,-20.8%
19,O=C(CCc1ccccc1Br)NCC(=O)NCc1ccccc1,-7.06%
20,O=C(Nc1cccc(N2CCCC2)c1)N[C@H](CCO)c1ccccc1,2.92%
21,CC(=O)N1CCN(C(=O)NCCc2ccc(Cl)s2)CC1,-4.33%
22,O=C(Cc1ccccc1)N1CC[C@@H]2CNS(=O)(=O)[C@@H]2CC1,2.48%
23,O=C(NCC1CC1)C1CCC2(CN(C(=O)c3ccno3)C2)O1 (configuration not stated),-13.9%

row,Structure (SMILES),cytotoxicity at 70.5 h
1,CC1CCN(CC(=O)N(C)CCc2noc(C3CC3)n2)C1=O (configuration not stated),-5.01%
2,CC(C)c1nnc(CN2CCN(C(C)c3nc(C4CC4)no3)CC2)o1 (configuration not stated),-3.84%
3,Cc1ccc(CN(CC(=O)NC2CCOCC2)c2ccc(F)cc2)o1,1.79%
4,COc1ccc(F)c(F)c1CN1CCC2(CC1)[C@H](O)C[C@@H]2OCCN,-7.39%
5,O=C(c1cccc(Cl)c1)N1CC[C@H]2[C@H]1CCN2CC1CCOCC1,-8.99%
6,O=S(=O)(NCc1ccc(S(=O)(=O)N2CCCC2)s1)c1cc(Cl)ccc1Cl,-14.9%
7,Fc1ccc(CN2CCOC(Cn3cncn3)C2)c2ncccc12 (configuration not stated),-3.84%
8,O=C(c1cccn1Cc1cccs1)N1CCN(C(=O)C2CC2)CC1,-20.1%
9,CCNc1cc2c(nn1)CCN(C(=O)c1cc(C)n(C3CC3)c1C)C2,-0.806%
10,O=S(=O)(NCC1COc2ccccc2C1)N1CCOCC1 (configuration not stated),-3.96%
11,COc1cc(O)ccc1CN1CCN(C2CCc3ccccc3C2)CC1 (configuration not stated),-3.26%
12,CS(=O)(=O)NCc1n[nH]c2c1CCN(C(=O)c1ccsc1)C2,30.1%
13,COc1ccc(F)cc1C(C(=O)O)N1CCCN(C2CCCC2)CC1 (configuration not stated),-5.48%
14,COCCN1CCC12CCN(C(=O)c1ccsc1)CC2,-11.4%
15,O=C(CN1CCOCC1)N1CCC2(CCCN(C3CCOCC3)C2=O)C1 (configuration not stated),0.199%
16,c1ccc(O[C@H]2COCCN(CC3CC3)C2)cc1,-1.48%
17,COc1nn(C)c2c1CCCN(C(=O)COc1ccccc1)C2,-104%
18,Cc1ccc(S(=O)(=O)N2CCC(S(C)(=O)=O)CC2)cc1C,-0.502%
19,O=C(c1cscn1)N1CC[C@@H]2[C@@H]1CCN2C1CCOCC1,-3.43%
20,Cc1cnn(CCCn2c(C)cc(C(F)(F)F)cc2=O)c1,-9.21%
